Experimental data published in US8846636B2, “Nucleoside analogues with quaternary carbon stereogenic centers and methods of use” (LCB Pharma Inc., priority 2008, dated 2014).
pIC50: −log10 of the molar value.

Assays:
Type in all cases: cell-based
[1] = tested on: PFSK-1; experiment: MTT cell proliferation assay, PFSK-1; conditions: Homo sapiens; PFSK-1 cell line (brain)
Procedure: (§1) The antiviral and antitumor activities of the compounds of the invention were evaluated by a cellular proliferation assay. The MTT [3-(4,5-dimethylthiazol-2-yl)-2,5-diphenyltetrazolium bromide] assay, first described by Mosmann (Mosmann T., “Rapid colorimetric assay for cellular growth and survival: application to proliferation and cytotoxicity assays,” J. Immunol. Methods 1983 Dec. 16; 65(1-2):55-63, and incorporated by reference in its entirety) is based on the ability of a mitochondrial dehydrogenase enzyme from viable cells to cleave the tetrazolium rings of the pale yellow MTT. The cleavage reaction form a dark blue formazan crystals which is largely impermeable to cell membranes and accumulation within healthy cells. Solubilisation of the cells by the addition of a detergent liberates and solubilizes the crystals. The number of surviving cells is directly proportional to the level of the formazan product created. The color can then be quantified using a simple colorimetric assay. The results can be read on a multiwell scanning spectrophotometer (ELISA reader).
(§2) In Tables 1 and 2, IC50 values are presented for various cell lines in micromolar units (μm), “Gemci” is Gemcitabine, and “5-FU” is 5-fluorouracil.

[2] = tested on: ZR-75-1; experiment: MTT cell proliferation assay, ZR-75-1; conditions: Homo sapiens; ZR-75-1 cell line (mammary gland; breast)
Procedure: as §1, §2

[3] = tested on: MOLT-4; experiment: MTT cell proliferation assay, MOLT-4; conditions: Homo sapiens, MOLT-4, MOLT-4 cell line (acute lymphoblastic leukemia)
Procedure: as §1, §2

[4] = tested on: DLD-1; experiment: MTT cell proliferation assay, DLD-1; conditions: Homo sapiens; DLD-1 cell line (colon)
Procedure: as §1, §2

[5] = tested on: 1A6; experiment: MTT cell proliferation assay, 1A6; conditions: 1A6 cell line (urinary bladder)
Procedure: as §1, §2

[6] = tested on: BxPC-3; experiment: MTT cell proliferation assay, BxPC-3; conditions: Homo sapiens; BxPC-3 cell line (pancreas)
Procedure: as §1, §2

[7] = tested on: NCI H1395; experiment: MTT cell proliferation assay, NCI H1395; conditions: Homo sapiens, NCI-H1395, NCI H1395 cell line (lung)
Procedure: as §1, §2

[8] = tested on: NCI H2052; experiment: MTT cell proliferation assay, NCI H2052; conditions: Homo sapiens; NCI H2052 cell line (tumor stage 4 derived from pleural effusion)
Procedure: as §1, §2

[9] = tested on: HCC1143; experiment: MTT cell proliferation assay, HCC1143; conditions: Homo sapiens; HCC1143 cell line (mammary gland; breast)
Procedure: as §1, §2

[10] = tested on: MCF7; experiment: MTT cell proliferation assay, MCF7; conditions: Homo sapiens; MCF7 cell line (mammary gland; breast)
Procedure: as §1, §2

[11] = tested on: 22Rv1; experiment: MTT cell proliferation assay, 22Rv1; conditions: Homo sapiens; 22Rv1 cell line (prostate)
Procedure: as §1, §2

[12] = tested on: 786-O; experiment: MTT cell proliferation assay, 786-O; conditions: Homo sapiens, 786-0; 786-O cell line (kidney)
Procedure: as §1, §2

[13] = tested on: HL-60; experiment: MTT cell proliferation assay, HL-60; conditions: Homo sapiens; HL-60 cell line (acute promyelocytic leukemia)
Procedure: as §1, §2

[14] = tested on: OVCAR3; experiment: MTT cell proliferation assay, OVCAR3; conditions: Homo sapiens, OVCAR-3; OVCAR3 cell line (ovary)
Procedure: as §1, §2

[15] = tested on: HCT 116; experiment: MTT cell proliferation assay, HCT 116; conditions: Homo sapiens; HCT 116 cell line (colon)
Procedure: as §1, §2

[16] = tested on: Colo 829; experiment: MTT cell proliferation assay, Colo 829; conditions: Homo sapiens; Colo 829 cell line (skin)
Procedure: as §1, §2

| Structure (SMILES) | pIC50 [1] | pIC50 [2] | pIC50 [3] | pIC50 [4] | pIC50 [5] | pIC50 [6] | pIC50 [7] | pIC50 [8] | pIC50 [9] | pIC50 [10] | pIC50 [11] | pIC50 [12] | pIC50 [13] | pIC50 [14] | pIC50 [15] | pIC50 [16] |
| --- | --- | --- | --- | --- | --- | --- | --- | --- | --- | --- | --- | --- | --- | --- | --- | --- |
| Nc1ccn([C@@H]2O[C@H](CO)[C@@H](O)C2(F)F)c(=O)n1 [Gemci., Gemcitabine, reference compound] | < 3.30 | < 3.30 | > 6.30 | < 3.30 | 5.30 | > 6.30 | > 6.30 | < 3.30 | 3.40 | < 3.30 | < 3.30 | < 3.30 | > 6.30 | 5.30 | > 6.30 | > 6.30 |
| CC1(CO)C(O)C(n2cnc3c(N)nc(Cl)nc32)O[C@@H]1CO (stereo in doubt) [LCB-1091, ((2S,3R,4R,5R)-5-(6-amino-2-chloro-9H-purin-9-yl)-4-hydroxy-3-methyltetrahydrofuran-2,3-diyl)dimethanol] | < 3.30 | < 3.30 | < 3.30 | < 3.30 | < 3.30 | < 3.30 | < 3.30 | < 3.30 | < 3.30 | < 3.30 | < 3.30 | < 3.30 | < 3.30 | < 3.30 | < 3.30 | < 3.30 |
| CC12C(=O)OC[C@H]1O[C@@H](n1ccc(N)nc1=O)C2O (mixture of isomers) [LCB-1079, 4-amino-1-((2R,3R,3αR,6αS)-3-hydroxy-3α-methyl-4-oxohexahydrofuro[3,4-β]furan-2-yl)pyrimidin-2(1H)-one] | 3.89 | 3.42 | 3.59 | 3.36 | 3.46 | 3.80 | < 3.30 | 3.51 | 3.32 | 3.55 | – | 3.34 | 3.60 | 3.55 | 3.39 | – |
| C[C@@]1(CO)[C@@H](CO)O[C@@H](n2ccc(N)nc2=O)[C@@H]1O [LCB-1095, 4-amino-1-((2R,3R,4S,5S)-3-hydroxy-4,5-bis(hydroxymethyl)-4-methyltetrahydrofuran-2-yl)pyrimidin-2(1H)-one] | < 3.30 | < 3.30 | < 3.30 | < 3.30 | < 3.30 | < 3.30 | < 3.30 | < 3.30 | < 3.30 | 3.37 | < 3.30 | < 3.30 | < 3.30 | < 3.30 | < 3.30 | 3.34 |
| CC1(CO)C(O)C(n2cc(F)c(N)nc2=O)O[C@@H]1CO (stereo partly drawn) [LCB-1082, 4-amino-5-fluoro-1-((2S,3S,4S,5S)-3-hydroxy-4,5-bis(hydroxymethyl)-4-methyltetrahydrofuran-2-yl)pyrimidin-2(1H)-one; 4-amino-5-fluoro-1-((2R,3R,4S,5S)-3-hydroxy-4,5-bis(hydroxymethyl)-4-methyltetrahydrofuran-2-yl)pyrimidin-2(1H)-one] | < 3.30 | < 3.30 | < 3.30 | < 3.30 | < 3.30 | – | < 3.30 | < 3.30 | < 3.30 | < 3.30 | – | < 3.30 | < 3.30 | – | – | < 3.30 |
| C[C@@]1(CO)[C@@H](CO)O[C@@H](n2cc(F)c(N)nc2=O)[C@@H]1O [LCB-1096, 4-amino-5-fluoro-1-((2R,3R,4S,5S)-3-hydroxy-4,5-bis(hydroxymethyl)-4-methyltetrahydrofuran-2-yl)pyrimidin-2(1H)-one] | < 3.30 | < 3.30 | < 3.30 | < 3.30 | < 3.30 | < 3.30 | < 3.30 | < 3.30 | < 3.30 | < 3.30 | < 3.30 | < 3.30 | < 3.30 | < 3.30 | < 3.30 | < 3.30 |
| O=c1[nH]cc(F)c(=O)[nH]1 [5-FU, 5-fluorouracil, reference compound] | 3.34 | < 3.30 | 4.70 | 3.33 | 3.52 | 3.66 | < 3.30 | < 3.30 | 3.47 | 4.40 | 4.30 | 3.96 | 4.60 | 4.46 | 4.60 | 3.77 |
| CCOC(=O)C1(C)[C@@H](CO)O[C@H](n2cnc3c(NN)nc(NN)nc32)[C@@H]1O (stereo partly shown) [LCB-1086] | 4.01 | < 4.00 | < 4.00 | < 4.00 | < 4.00 | 4.05 | < 4.00 | – | < 4.00 | < 4.00 | < 4.00 | < 4.00 | < 4.00 | < 4.00 | < 4.00 | < 4.00 |
| C[C@]1(CO)C(O)[C@H](n2ccc(N)nc2=O)O[C@@H]1CO (stereo partly shown) [compound 1056] | < 3.30 | < 3.30 | – | < 3.30 | < 3.30 | < 3.30 | 3.36 | < 3.30 | < 3.30 | < 3.30 | – | < 3.30 | < 3.30 | < 3.30 | < 3.30 | < 3.30 |
| CC12C(=O)OC[C@H]1O[C@@H](n1cc(F)c(N)nc1=O)C2O (mixture of isomers) [LCB-1080, 4-amino-5-fluoro-1-((2R,3R,3αR,6αS)-3-hydroxy-3α-methyl-4-oxohexahydrofuro[3,4-β]furan-2-yl)pyrimidin-2(1H)-one] | < 3.30 | < 3.30 | < 3.30 | < 3.30 | < 3.30 | – | < 3.30 | < 3.30 | < 3.30 | < 3.30 | – | < 3.30 | < 3.30 | – | – | < 3.30 |
| C[C@]1(C(=O)NN)[C@@H](CO)O[C@@H](n2cc(F)c(N)nc2=O)[C@@H]1O [LCB-1085, (2S,3R,4R,5R)-5-(4-amino-5-fluoro-2-oxopyrimidin-1(2H)-yl)-4-hydroxy-2-(hydroxymethyl)-3-methyltetrahydrofuran-3-carbohydrazide] | < 4.00 | < 4.00 | 4.10 | < 4.00 | < 4.00 | < 4.00 | < 4.00 | < 4.00 | < 4.00 | < 4.00 | < 4.00 | < 4.00 | < 4.00 | < 4.00 | < 4.00 | < 4.00 |
| C[C@]1(C(N)=O)[C@H](O)[C@@H](n2ccc(N)nc2=O)O[C@@H]1CO [LCB-1087, (2S,3S,4S,5S)-5-(4-amino-2-oxopyrimidin-1(2H)-yl)-4-hydroxy-2-(hydroxymethyl)-3-methyltetrahydrofuran-3-carboxamide] | < 3.30 | < 3.30 | < 3.30 | < 3.30 | < 3.30 | < 3.30 | < 3.30 | – | < 3.30 | < 3.30 | < 3.30 | < 3.30 | < 3.30 | < 3.30 | < 3.30 | < 3.30 |
